Results: patent publication US11020375B2, “Edaravone dosage form” (SUZHOU AUZONE BIOLOGICAL TECHNOLOGY CO., LTD, priority 2016, dated 2021)

How the values were obtained:
[1] = Screening drug carrier Soluplus and optimizing solid dispersion: solubility of Edaravone by HPLC; type: physicochemical; conditions: 1%-6% w/v carrier solutions, 24 hours at room temperature (FIG. 2)
Protocol: To separate glass vials, 1%, 2%, 3%, 4%, 5% and 6% w/v solutions of different carriers was added, respectively. An excess amount of Edaravone was added to the above mentioned solutions followed by continuous rotation using a mechanical shaker (Axyos Technologies, Brisbane, Australia) throughout the test for 24 hours at room temperature. After reaching equilibrium, each vial was centrifuged at 3000 rpm for 5 min, and excess insoluble Edaravone was discarded by filtration through 0.45 μm PVDF syringe filter. Subsequently, the filtrates were diluted using methanol. The solubility analysis was performed in triplicate by using the previously developed and validated HPLC method.

[2] = Stability studies in simulated gastrointestinal fluids at various pHs; type: physicochemical
Protocol: Simulated gastrointestinal fluids (without enzymes and bile component) were prepared according to the USP methods. SGF (simulated gastric fluid) 1.2 pH (USP) and SIF (Simulating Intestinal fluid) 6.8 pH (USP) and 7.4 pH. To determine the chemical stability of SD formulations, the solutions in miliQ water was prepared and used. SD formulation was dissolved in aforesaid buffer solutions. Samples were collected at the predetermined time interval and filtered through 0.45 μm PVDF syringe filter. All samples were analysed in triplicate by HPLC.

stability in biorelevant media ([2]; acidic pH (FIG. 8A)): maintained substantially constant
stability in biorelevant media ([2]; neutral to basic pH (FIG. 8A)): significant degradation
Structure (SMILES): CC1=NN(c2ccccc2)C(=O)C1 [Edaravone, 3-methyl-1-phenyl-2-pyrazol-5-one]
solubility of Edaravone in Soluplus carrier solutions [1]: solubility improvement in concentration-dependent manner
